Laboratory results published in patent publication US10227331B2 (priority 2015, dated 2019).
Read-outs that look alike come from different tables or passages of the source.

Tests used:
VIM-1 = VIM-1 (Pseudomonas aeruginosa (strain ATCC 15692 / DSM 22644 / CIP 104116 / JCM 14847 / LMG 12228 / 1C / PRS 101 / PAO1), UniProt A0A0F7KYQ8); experiment: biochemical; details: CCF2-FA substrate, 2 hours at 25° C
Procedure, shortened: (§1)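 Fluorescence assay, CCF2-FA substrate (cephalosporin core linking 7-hydroxycoumarin to fluorescein); inhibitor + MBL + substrate, 2 h, 25° C. IC50 by 4-parameter fit, semi-log plot.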

NDM-1 = NDM-1 (Klebsiella pneumoniae, UniProt C7C422); experiment: biochemical; assay type: biochemical
Sequence of NDM-1 (C7C422 whole entry, looked up, species assumed): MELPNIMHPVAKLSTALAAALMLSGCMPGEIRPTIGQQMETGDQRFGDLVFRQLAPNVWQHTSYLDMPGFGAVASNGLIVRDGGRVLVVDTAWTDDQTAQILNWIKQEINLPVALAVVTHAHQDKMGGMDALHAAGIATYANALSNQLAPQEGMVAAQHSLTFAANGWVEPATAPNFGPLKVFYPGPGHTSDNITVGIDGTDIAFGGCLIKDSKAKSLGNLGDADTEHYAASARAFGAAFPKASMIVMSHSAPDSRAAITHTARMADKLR
Procedure, shortened: as §1

IMP-1 = IMP-1 (Serratia marcescens, UniProt P52699); experiment: biochemical; assay type: biochemical; details: CCF2-FA substrate, 2 hours at 25° C; read-out: IMP-1 IC50
Sequence of IMP-1 (P52699 whole entry, looked up, species assumed): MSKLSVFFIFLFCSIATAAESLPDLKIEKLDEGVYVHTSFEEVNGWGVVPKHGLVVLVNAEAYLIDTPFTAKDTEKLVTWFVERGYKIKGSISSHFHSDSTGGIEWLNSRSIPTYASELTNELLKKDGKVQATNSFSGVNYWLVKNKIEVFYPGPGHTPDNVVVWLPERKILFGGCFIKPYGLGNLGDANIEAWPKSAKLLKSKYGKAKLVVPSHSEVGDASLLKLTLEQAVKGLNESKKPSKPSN
Procedure, shortened: as §1

[1] = system: P. aeruginosa expressing IMP-1, efflux+ (MB9798); assay type: cell-based, Pseudomonas aeruginosa; details: for P. aeruginosa expressing IMP-1, efflux+ (MB9798) MITC95: imipenem at 2 μg/mL, in the presence of a class A, C, D serine β-lactamase inhibitor closely related to relebactam; for Efflux ratio: ratio MITC95 PA_9798/MITC95 PA_9799
Excerpt: (§2) The strain background is Pseudomonas aeruginosa PAO1.

[2] = system: P. aeruginosa expressing IMP-1, efflux− (MB9799); experiment: Efflux: concentration of MBL inhibitor which restores susceptibility to imipenem; assay type: cell-based, Pseudomonas aeruginosa; details: imipenem at 2 μg/mL, in the presence of a class A, C, D serine β-lactamase inhibitor closely related to relebactam
Excerpt: as §2

[3] = system: Klebsiella pneumoniae expressing VIM-1 (IHMA599644); assay type: cell-based; details: VIM-1 (IHMA599644), with imipenem 1 μg/ml, 95% inhibition of bacterial growth
Procedure, shortened: (§3)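 Colonies from overnight 35 °C blood-agar cultures were suspended in saline, diluted 1:100 into 1.1× CAMHB and exposed to test compound with or without imipenem at 1 μg/ml. After 22–24 h at 35 °C, absorbance was read to find the concentration restoring imipenem susceptibility.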

[4] = system: Escherichia coli expressing NDM-1 (CLB30005, CLB30016); assay type: cell-based; details: NDM-1 (CLB30016), with imipenem 1 μg/ml, 95% inhibition of bacterial growth
Procedure, shortened: as §3

[5] = system: Serratia marcescens expressing IMP-1 (CL5741); assay type: cell-based; details: IMP-1 (CL5741), with imipenem 1 μg/ml, 95% inhibition of bacterial growth
Procedure, shortened: as §3

[6] = CCF2-FA substrate, 2 hours at 25° C, read-out: NDM-1 IC50

Row | SMILES | IC50 (VIM-1) [nM] | IC50 (NDM-1; [6]) [nM] | IC50 (IMP-1) [nM] | P. aeruginosa expressing IMP-1, efflux+ (MB9798) MITC95 [1] [µM] | Efflux ratio [1] | P. aeruginosa expressing IMP-1, efflux− (MB9799) MITC95 [2] [µM] | Klebsiella pneumoniae MITC95 [3] [µM] | Escherichia coli MITC95 [4] [µM] | Serratia marcescens MITC95 [5] [µM] | IC50 (NDM-1) [nM]
1 | CS(=O)(=O)Nc1nc2c(-c3ccc(S(=O)(=O)C4CCNCC4)c(S(N)(=O)=O)c3-c3nn[nH]n3)cccc2s1 [Example 325, 3-(2-(methylsulfonamido)benzo[d]thiazol-4-yl)-6-(piperidin-4-ylsulfonyl)-2-(2H-tetrazol-5-yl)benzenesulfonamide] | 0.346 | 0.0723 | 0.239 | 6.25 | 1.00 | 6.25 | 25 | 12.5 | 12.5 | –
2 | CN(C)CCS(=O)(=O)c1ccc(-c2cccc3sc(N)nc23)c(-c2nn[nH]n2)c1S(N)(=O)=O [Example 326, 3-(2-aminobenzo[d]thiazol-4-yl)-6-((2-(dimethylamino)ethyl)sulfonyl)-2-(2H-tetrazol-5-yl)benzenesulfonamide] | 0.167 | 0.0761 | 0.248 | 1.563 | 1.00 | 1.563 | 6.25 | 3.125 | 3.125 | –
3 | NCCS(=O)(=O)c1ccc(-c2cccc3[nH]c([C@H](N)CN)nc23)c(-c2nn[nH]n2)c1S(N)(=O)=O [Example 327, (R)-6-((2-Aminoethyl)sulfonyl)-3-(2-(1,2-diaminoethyl)-1H-benzo[d]imidazol-4-yl)-2-(2H-tetrazol-5-yl)benzenesulfonamide] | 0.455 | – | 2.23 | 3.125 | 2.00 | 1.563 | 3.125 | 1.563 | 3.125 | 1.02
4 | NCCS(=O)(=O)c1ccc(-c2cccc3[nH]c([C@H](N)CNC(=O)C(F)(F)F)nc23)c(-c2nn[nH]n2)c1S(N)(=O)=O [Example 328, (R)—N-(2-Amino-2-(4-(4-((2-aminoethyl)sulfonyl)-3-sulfamoyl-2-(2H-tetrazol-5-yl)phenyl)-1H-benzo[d]imidazol-2-yl)ethyl)-2,2,2-trifluoroacetamide] | 0.474 | 1.3 | 3.42 | 3.125 | 2.00 | 1.563 | 3.125 | 1.563 | 3.125 | –
5 | NCCS(=O)(=O)c1ccc(-c2cccc3[nH]c([C@H](N)CO)nc23)c(-c2nn[nH]n2)c1S(N)(=O)=O [Example 329, (S)-3-(2-(1-amino-2-hydroxyethyl)-1H-benzo[d]imidazol-4-yl)-6-((2-aminoethyl)sulfonyl)-2-(2H-tetrazol-5-yl) benzenesulfonamide] | 0.282 | 0.404 | 1.93 | 3.125 | 2.00 | 1.563 | 6.25 | 1.563 | 3.125 | –
6 | NCCS(=O)(=O)c1ccc(-c2cccc3[nH]c(CC(N)C(=O)O)nc23)c(-c2nn[nH]n2)c1S(N)(=O)=O (stereo not drawn) [Example 330, 2-amino-3-(4-(4-((2-aminoethyl)sulfonyl)-3-sulfamoyl-2-(2H-tetrazol-5-yl)phenyl)-1H-benzo[d]imidazol-2-yl)propanoic acid] | 0.639 | 0.675 | 3.61 | 6.25 | 2.00 | 3.125 | 6.25 | 3.125 | 1.563 | –
7 | Cc1nc2c(-c3ccc(S(=O)(=O)CCN)c(S(N)(=O)=O)c3-c3nn[nH]n3)cccc2[nH]1 [Example 331, 6-((2-aminoethyl)sulfonyl)-3-(2-methyl-1H-benzo[d]imidazol-4-yl)-2-(2H-tetrazol-5-yl) benzenesulfonamide] | 0.183 | 0.165 | 0.302 | 1.563 | 1.00 | 1.563 | 6.25 | 3.125 | 1.563 | –
8 | NS(=O)(=O)c1c(S(=O)(=O)C2CNC2)ccc(-c2cccc3[nH]cnc23)c1-c1nn[nH]n1 [Example 332, 6-(Azetidin-3-ylsulfonyl)-3-(1H-benzo[d]imidazol-4-yl)-2-(2H-tetrazol-5-yl)benzenesulfonamide] | 0.275 | 0.124 | 0.557 | 6.25 | 4.00 | 1.563 | 3.125 | 0.7813 | 1.563 | –
9 | NCCS(=O)(=O)c1ccc(-c2cccc(NC(=O)CN)c2)c(-c2nn[nH]n2)c1S(N)(=O)=O [Example 333, 2-Amino-N-(4′-((2-aminoethyl)sulfonyl)-3′-sulfamoyl-2′-(2H-tetrazol-5-yl)-[1,1′-biphenyl]-3-yl)acetamide] | 0.312 | 3.44 | 10.3 | 6.25 | 8.00 | 0.7813 | 1.563 | 0.3906 | 1.563 | –
10 | NCCS(=O)(=O)c1ccc(-c2cnc(N)c(C(N)=O)c2)c(-c2nn[nH]n2)c1S(N)(=O)=O [Example 335, 2-Amino-5-(4-((2-aminoethyl)sulfonyl)-3-sulfamoyl-2-(2H-tetrazol-5-yl)phenyl)nicotinamide] | 1.23 | 3.22 | 8.9 | 12.5 | 8.00 | 1.563 | 3.125 | 1.563 | 1.563 | –
11 | NCCS(=O)(=O)c1ccc(-c2cnc(N)c(C(=O)N[C@H]3CCNC3)c2)c(-c2nn[nH]n2)c1S(N)(=O)=O [Example 336, (S)-2-Amino-5-(4-((2-aminoethyl)sulfonyl)-3-sulfamoyl-2-(2H-tetrazol-5-yl)phenyl)-N-(pyrrolidin-3-yl)nicotinamide] | 3.57 | 6.3 | 9.51 | 12.5 | 8.00 | 1.563 | 3.125 | 0.7813 | 1.563 | –
12 | NCCS(=O)(=O)c1ccc(-c2cccc(NC(=O)CN)c2NC(=O)CN)c(-c2nn[nH]n2)c1S(N)(=O)=O [Example 338, N,N′-(4′-((2-Aminoethyl)sulfonyl)-3′-sulfamoyl-2′-(2H-tetrazol-5-yl)-[1,1′-biphenyl]-2,3-diyl)bis(2-aminoacetamide)] | 15.1 | 20.4 | 74.9 | 25 | 4.00 | 6.25 | 6.25 | 1.563 | 3.125 | –
13 | NCCS(=O)(=O)c1ccc(-c2ccccc2N)c(-c2nn[nH]n2)c1S(N)(=O)=O [Example 339, 2′-Amino-4-((2-aminoethyl)sulfonyl)-2-(2H-tetrazol-5-yl)-[1,1′-biphenyl]-3-sulfonamide] | 1.78 | 2.52 | 3.42 | 6.25 | 4.00 | 1.563 | 3.125 | 1.563 | 3.125 | –
